Measured values taken from US12391680B2, “Compounds and compositions for the treatment of cystic fibrosis” (FONDAZIONE ISTITUTO ITALIANO DI TECNOLOGIA, priority 2019, dated 2025).

Assays:
Type in all cases: cell-based
[1] = biological target: T1, F508del-CFTR (Homo sapiens, UniProt P13569, DEL508-508); experiment: Transepithelial electrical conductance (TEEC) in FRT cells expressing F508del-CFTR; set-up: expressed in transfected cells; host or cells: FRT cells; conditions: tested at 5.0 μM, 24 hrs incubation
T1 sequence (P13569 with tags, fused parts or gaps DEL508-508): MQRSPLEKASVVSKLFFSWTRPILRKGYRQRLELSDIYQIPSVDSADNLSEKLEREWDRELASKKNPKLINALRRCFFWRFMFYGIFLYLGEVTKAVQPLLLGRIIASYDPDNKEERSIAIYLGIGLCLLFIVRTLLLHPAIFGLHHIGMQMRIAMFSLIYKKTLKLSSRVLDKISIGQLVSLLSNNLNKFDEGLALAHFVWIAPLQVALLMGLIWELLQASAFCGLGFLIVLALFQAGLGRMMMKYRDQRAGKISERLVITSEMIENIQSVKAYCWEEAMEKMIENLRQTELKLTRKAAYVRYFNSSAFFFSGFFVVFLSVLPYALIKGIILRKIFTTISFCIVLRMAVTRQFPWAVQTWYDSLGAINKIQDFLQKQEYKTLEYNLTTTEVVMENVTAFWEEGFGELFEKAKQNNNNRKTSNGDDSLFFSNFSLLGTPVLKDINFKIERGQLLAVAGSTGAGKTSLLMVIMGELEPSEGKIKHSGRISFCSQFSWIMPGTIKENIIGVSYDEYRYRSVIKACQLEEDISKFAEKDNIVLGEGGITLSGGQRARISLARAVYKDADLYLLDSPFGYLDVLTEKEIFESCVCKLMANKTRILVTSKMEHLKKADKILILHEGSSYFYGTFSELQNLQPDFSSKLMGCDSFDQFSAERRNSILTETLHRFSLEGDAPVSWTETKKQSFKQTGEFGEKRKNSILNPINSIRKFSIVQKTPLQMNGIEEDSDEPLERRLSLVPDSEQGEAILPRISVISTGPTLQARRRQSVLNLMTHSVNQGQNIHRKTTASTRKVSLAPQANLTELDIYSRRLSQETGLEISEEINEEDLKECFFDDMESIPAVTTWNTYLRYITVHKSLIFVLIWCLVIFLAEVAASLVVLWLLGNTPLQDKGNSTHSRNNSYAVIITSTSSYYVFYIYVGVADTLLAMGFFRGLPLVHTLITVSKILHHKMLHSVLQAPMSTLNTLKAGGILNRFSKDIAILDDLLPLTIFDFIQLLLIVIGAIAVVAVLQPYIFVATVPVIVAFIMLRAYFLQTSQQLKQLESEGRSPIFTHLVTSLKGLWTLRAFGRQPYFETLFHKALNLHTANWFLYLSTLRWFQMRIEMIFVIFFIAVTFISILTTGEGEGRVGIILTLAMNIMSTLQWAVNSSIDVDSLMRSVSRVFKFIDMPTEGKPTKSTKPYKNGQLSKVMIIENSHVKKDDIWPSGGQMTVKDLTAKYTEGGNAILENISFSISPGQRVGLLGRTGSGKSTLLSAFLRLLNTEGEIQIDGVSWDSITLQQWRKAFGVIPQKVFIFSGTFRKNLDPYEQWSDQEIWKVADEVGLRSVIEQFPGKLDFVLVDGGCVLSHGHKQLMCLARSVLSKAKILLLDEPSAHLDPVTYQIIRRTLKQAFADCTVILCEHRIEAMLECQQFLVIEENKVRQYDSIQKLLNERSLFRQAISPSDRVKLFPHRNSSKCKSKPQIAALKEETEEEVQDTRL
Experimental: FRT cells expressing F508del-CFTR were plated on HTS Transwell-24 well permeable supports (Code 3379, Corning Life Sciences) at a density of 200,000 cells/well. After six days, cells were incubated for 24 hrs with test correctors, vehicle, or VX-809. Compounds were dissolved in both basolateral (800 μL) and apical (300 μL) culture medium. After treatment, the culture medium was removed and replaced on both sides with a saline solution containing (in mM): 130 NaCl, 2.7 KCl, 1.5 KH2PO4, 1 CaCl2, 0.5 MgCl2, 10 glucose, 10 Na-Hepes (pH 7.4). The basolateral and apical side received 800 μL and 100 μL, respectively. The 24-well tray with cells was placed on a block heater (SBH 130D, Stuart) to keep the temperature at 37° C. during the entire experiment. After 10 min, the basal transepithelial electrical resistance (TEER) across each layer of FRT cells was measured with a STX100C electrode pair connected to an EVOM2 voltohmeter (World Precision Instruments). To stimulate F508del-CFTR, each well received (apical side) 50 μL of saline solution containing 60 μM forskolin and 150 μM genistein (final concentrations: 20 μM forskolin, 50 μM genistein). Forskolin was also pipetted in the basolateral medium to obtain the 20 μM concentration. After 10 min TEER was measured again in each well. To block F508del-CFTR function, the inhibitor PPQ-102 was used at the final concentration of 30 μM. To achieve the desired concentration, 75 μL of the apical solution in each well was replaced with an equal volume of saline solution containing 20 μM forskolin, 50 μM genistein, and 60 μM PPQ-102. After further 10 min, the transepithelial electrical resistance was measured. All values of TEER were converted to transepithelial electrical conductance (TEEC) using the formula TEEC=1/TEER. The parameter to indicate activity of F508del-CFTR in each well (ATEEC) was calculated from the difference in TEEC measured after maximal stimulation of F508del-CFTR with forskolin and genistein and after block with PPQ-102.
Corrector activities obtained on selected compounds tested at 5.0 μM (expressed as ΔTEEC values) are illustrated in Table 2, wherein+: ΔTEEC<2000 μS; ++: 2000 μS <ΔTEEC<3000ρS; +++: ΔTEEC>3000 μS.

[2] = biological target: T1, F508del-CFTR; experiment: Short-circuit current recordings on human bronchial epithelial cells from CF patients (F508del/F508del); set-up: Human bronchial epithelial (HBE) cells obtained from CF patients (F508del/F508del genotype); endogenous in cells; host or cells: primary human bronchial epithelial cells from CF patients, F508del/F508del; conditions: HBE cells F508del/F508del, 24 hrs treatment, CPT-cAMP plus VX-770 minus CFTRinh-172
Experimental: Human bronchial epithelial (HBE) cells obtained from CF patients (F508del/F508del genotype) were plated on Snapwell inserts (Code 3801, Corning Life Sciences) at a density of 500,000 cells per insert. Cells were cultured for two weeks in a differentiating medium whose compositions has been previously described (Scudieri et al., J Physiol 590:6141-6155, 2012). For the first week, the medium was kept on both apical and basolateral sides of inserts (submerged condition). For the second week, the apical medium was removed (air-liquid condition, ALC). To test the activity of correctors, cells were treated for 24 hrs with compounds dissolved in the basolateral medium. After treatment, Snapwell inserts carrying differentiated bronchial epithelia were mounted in a vertical chamber resembling an Ussing system with internal fluid circulation. Both apical and basolateral hemichambers were filled with 5 mL of a Krebs bicarbonate solution containing (in mM): 126 NaCl, 0.38 KH2PO4, 2.13 K2HPO4, 1 MgSO4, 1 CaCl2, 24 NaHCO3, and 10 glucose. Both sides were continuously bubbled with a gas mixture containing 5% CO2-95% air and the temperature of the solution was kept at 37° C. The transepithelial voltage was short-circuited with a voltage-clamp (DVC-1000, World Precision Instruments) connected to the apical and basolateral chambers via Ag/AgCl electrodes and agar bridges (1 M KCl in 1% agar). The offset between voltage electrodes and the fluid resistance were canceled before experiments. The short-circuit current was recorded with a PowerLab 4/25 (ADInstruments) analogical to digital converter connected to a Macintosh computer. […] The difference between the current measured with CPT-cAMP plus potentiator and the current remaining after CFTRinh-172 treatment (ΔICFTR) was taken as the parameter reflecting F508del-CFTR expression in the apical membrane.
Activities of selected compounds on HBE cells (expressed as ΔICFTR) are illustrated in Table 3 wherein+: ΔICFTR<2.0 μA; ++: 2.0 μA<ΔICFTR<3.0 μA; +++: ΔICFTR >3.0 μA.

[3] = biological target: mutant CFTR (Homo sapiens, UniProt P13569); experiment: Fluorescence assay for CFTR activity (halide-sensitive YFP, HS-YFP); conditions: CFBE41o- and FRT cells with stable expression of mutant CFTR
mutant CFTR, sequence (P13569 with tags, fused parts or gaps DEL508-508): as above
How it was run: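 CFBE41o- or FRT cells stably expressing mutant CFTR and HS-YFP; correctors given 24 h, then 30 min forskolin 20 μM plus genistein 50 μM. Potentiators given 30 min with forskolin 20 μM, after 24 h at 27° C. for F508del, directly for G551D or G1349D. Quenching rate after 100 mM final I^− gives EC50.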

activity (corrector activity expressed as ΔTEEC) [1]	activity (ΔICFTR) [2]	EC50 [3] [nM]	Compound
++ (2000 μS <ΔTEEC<3000ρS)	+ (ΔICFTR<2.0 μA)	> 2000	Cc1cc(S(=O)(=O)N2CCOC(c3c(C(N)=O)sc4ccccc34)C2)ccc1F (racemic) [compound 001, rac-3-[4-(4-fluoro-3-methyl-benzenesulfonyl)-morpholin-2-yl]-benzo[b]thiophene-2-carboxylic acid amide]
++ (2000 μS <ΔTEEC<3000ρS)	+++ (ΔICFTR >3.0 μA)	1000 to 2000	NC(=O)c1sc2ccccc2c1C1CN(S(=O)(=O)c2ccc(C(F)(F)F)cc2)CCO1 (racemic) [compound 011, rac-3-[4-[4-(trifluoromethyl)phenyl]sulfonylmorpholin-2-yl]benzothiophene-2-carboxamide]
++ (2000 μS <ΔTEEC<3000ρS)	+++ (ΔICFTR >3.0 μA)	< 1000	Cc1nc2ccc(S(=O)(=O)N3CCOC(c4c(C(N)=O)sc5ccccc45)C3)cc2o1 (racemic) [compound 034, rac-3-[4-[(2-methyl-1,3-benzoxazol-6-yl)sulfonyl]morpholin-2-yl]benzothiophene-2-carboxamide]
++ (2000 μS <ΔTEEC<3000ρS)		< 1000	NC(=O)c1sc2ccccc2c1C1CN(S(=O)(=O)c2ccc(OC(F)(F)F)cc2)CCO1 (racemic) [compound 039, rac-3-[4-[4-(trifluoromethoxy)phenyl]sulfonylmorpholin-2-yl]benzothiophene-2-carboxamide]
+++ (ΔTEEC>3000 μS)	++ (2.0 μA<ΔICFTR<3.0 μA)	< 1000	NC(=O)c1sc2ccccc2c1C1CN(S(=O)(=O)c2ccc(C(F)(F)F)c(F)c2)CCO1 (racemic) [compound 041, rac-3-[4-[3-fluoro-4-(trifluoromethyl)phenyl]sulfonylmorpholin-2-yl]benzothiophene-2-carboxamide]
+ (ΔTEEC<2000 μS)		> 2000	NC(=O)c1sc2ccccc2c1[C@@H]1CN(S(=O)(=O)c2ccc(C(F)(F)F)cc2)CCO1 (single isomer, unassigned) [compound 042]
+++ (ΔTEEC>3000 μS)		< 1000	NC(=O)c1sc2ccccc2c1[C@H]1CN(S(=O)(=O)c2ccc(C(F)(F)F)cc2)CCO1 (single isomer, unassigned) [compound 043]
